According to patent US7259278B2, “Anti-S-phase tubulin ligands” (Cytoskeleton Inc., priority 2000, dated 2007):

Columns and labels:
Prostate carcinoma = Prostate carcinoma model; type: in vivo, mice; conditions: 90 days after tumor implant
Method: FIG. 11. Prostate carcinoma inhibition by IAABE. • *—N,N-dimethylacetamide, propylene glycol and Tween 80 (1:2:1 v/v/v) • 1—2.5×10^6 tumor cells were injected s.c. on day 0, treatment started at day 1. • 2—TI%=Tumor growth inhibition 1 week after last treatment. • 3—TF/T=Tumor free mice at day 90 after tumor implant.

[1] = system: lymphoma cells (Daudi/wt and Daudi/MDR); test: Cytotoxicity: cancericidal index, lymphoma cells versus normal cells; type: cell-based, human
Method: FIG. 9. Cytotoxicity of IAABE against different tumor cells.
Cytotoxicity assays. Cells in suspension were seeded into 96-well plates at 10^5 cells/well, and the compounds added, total well volume was 250 μl. Cells were cultured for 48 h and the viability measured by trypan blue exclusion. ID50 and ID90 values were determined by the concentration of compound required to induce cell death in 50 or 90% of cells respectively.

CEM cells [2] = conditions: 4 n DNA; cited from earlier work
[3] = biological target: mitochondrial permeability transition pore complex; conditions: read-out: Kd of interaction with a component (probably tubulin) on the mitochondrial outer membrane; cited from earlier work
CEM cells [4] = test: Immunofluorescence staining of microtubule structure and apoptotic DNA analysis; type: cell-based; conditions: ID90 concentration
Method: FIG. 5. Interferences with the formation of microtubule structure in IAABE treated CEM cells. […] Insert is DNA extracted from the same samples run on 1% agarose gels and stained with ethidium bromide. Note absence of microtubule structure and appearance of apoptotic nuclei in IAABE treated cells. Note strong signal of apoptotic DNA ladder in IAABE treated cells compared to vinblastine and paclitaxel samples.
Immunofluorescence staining of microtubule structure. CEM cells incubated in the presence or absence of IAABE were collected and centrifuged in a Cytospin centrifuge at 700 xg for 5 min. The slides were air dried and fixed with methanol at −20° C. for 20 min. The slides were incubated in PBS containing 1% BSA at 37° C. for 30 min. After washing with PBS for 3 min, cells on the slides were covered with 30 ul of antihuman beta-tubulin monoclonal antibody (4 ug/ml; Accurate Antibody, Westbury, N.Y.) and placed in a humid chamber at 24° C. for 60 min. The slides were washed with PBS three times for 3 min each, followed by staining with 10 ul of FTTC-labeled goat anti-mouse antibody (Coulter, Hialeah, Fla.) in a humid chamber at 24° C. for 60 min. After washing in PBS, the stained cells were visualized under a fluorescence microscope (model MC63, Zeiss, Jena, Germany).
Apoptotic DNA analysis. […]

| Structure (SMILES) | tumor free mice (Prostate carcinoma) | cancericidal index, ratio (ID50 normal cells/ID50 cancer cells) [1] | cell cycle phase of arrest (CEM cells [2]) | Kd [3] | microtubule structure by immunofluorescence (CEM cells [4]) |
| --- | --- | --- | --- | --- | --- |
| CC(=O)O[C@H]1C(=O)[C@@]2(C)[C@H]([C@H](OC(=O)c3ccccc3)[C@]3(O)C[C@H](OC(=O)[C@H](O)[C@@H](NC(=O)c4ccccc4)c4ccccc4)C(C)=C1C3(C)C)[C@]1(OC(C)=O)CO[C@@H]1C[C@@H]2O [paclitaxel] | no tumor free mice | 24 | G2/M phase | 5 to 20 µM | dense mitotic spindle staining |
| CC[C@]1(O)C[C@@H]2CN(CCc3c([nH]c4ccccc34)[C@@](C(=O)OC)(c3cc4c(cc3OC)N(C)[C@H]3[C@@](O)(C(=O)OC)[C@H](OC(C)=O)[C@]5(CC)C=CCN6CC[C@]43[C@@H]65)C2)C1 [vinblastine] | no tumor free mice | 42 | G2/M phase | – | punctuated aggregates of tubulin |
